Test [1] relates to RAW264.7. The test is described as follows: Anti-inflammatory activity against IL-4/IL-13 stimulated mouse RAW264.7 cells assessed as upregulation of TNFalpha secretion at 20 uM incubated for 48 hrs by ELISA method. Format: functional, cell-based. (An ELISA detects its analyte on a solid surface through an enzyme-linked reagent.)
The subject of test [2] is RAW264.7. The test is described as follows: Anti-inflammatory activity against IL-4/IL-13 stimulated mouse RAW264.7 cells assessed as inhibition of IL-10 secretion at 5 to 20 uM incubated for 48 hrs by ELISA method relative to control. Format: functional. Particulars: dose 5-20 µM.
Test [3] deals with RAW264.7. The experiment in a line: Anti-inflammatory activity against IL-4/IL-13 stimulated mouse RAW264.7 cells assessed as inhibition of IL-10 secretion at 20 uM incubated for 48 hrs by ELISA method. Format: functional, cell-based.
The test system of test [4] is RAW264.7. The experiment in a line: Anti-inflammatory activity against IL-4/IL-13 stimulated mouse RAW264.7 cells assessed as upregulation of TNFalpha secretion at 5 to 20 uM incubated for 48 hrs by ELISA method relative to control. Format: functional. The settings on record: dose 5-20 µM.

Calls of active or inactive are those of the source. The rule behind the calls is not given here. Where only a bound is given, the exact number is not on record here.

`CO[C@@]1(C)[C@H](O)CC[C@@H]2[C@@](C)(C[C@H](O)c3ccoc3)[C@H](C)CC[C@]21C`: the result in the test with RAW264.7 [1] was Active. For the same molecule, the “inhibition (INH)” value in the test with RAW264.7 [2] is given as >40%. In addition, the inhibition result in the test on RAW264.7 [3] is “Active”. In addition, the Activity in the test with RAW264.7 [4] is on record as >40%.
For the molecule `C[C@@H]1CC[C@]2(C)[C@H](CCC(=O)[C@H]2C)[C@@]1(C)CCc1ccoc1`, in the test on RAW264.7 [1], the outcome was Active. The inhibition entry with RAW264.7 [3] is “Active”.
Consider `C[C@]1(C[C@H](O)c2ccoc2)[C@H](CO)CC[C@]2(C)[C@@H]1CC[C@@H](O)[C@]2(C)O`, for which, in the test on RAW264.7 [1], the outcome was Active. Also, in the test with RAW264.7 [3], the inhibition result was “Active”.
As to `CCO[C@@]1(C)[C@H](O)CC[C@@H]2[C@@](C)(CC(=O)c3ccoc3)[C@H](C)CC[C@]21C`, in the test on RAW264.7 [1], the result was Active. The “inhibition (INH)” value with RAW264.7 [2] is listed as >40%. Besides, the inhibition entry with RAW264.7 [3] is “Active”. Also, the Activity with RAW264.7 [4] is recorded as >40%.
On to `C[C@]1(CCc2ccoc2)[C@H](CO)CC[C@]2(C)[C@@H]1CC[C@@H](O)[C@]2(C)O`, for which, in the test with RAW264.7 [3], the inhibition result is “Active”.
`COC(=O)[C@@H]1CC[C@]2(C)[C@H](CC[C@@H](O)[C@]2(C)OC)[C@@]1(C)CC(=O)c1ccoc1`: the result in the test on RAW264.7 [1] was Active. Moreover, in the test on RAW264.7 [3], the inhibition result was “Active”.
With `C[C@@H]1CC[C@]2(C)[C@H](CC[C@@H](O)[C@]2(C)O)[C@@]1(C)CCc1ccoc1`, the result with RAW264.7 [1] was Active. For the same molecule, in the test with RAW264.7 [3], the inhibition result was “Active”.
Regarding `CC1=CC(=O)O[C@@H]1C[C@@]1(C)[C@H](C)CC[C@@]2(C)C(C)=CC(=O)C[C@H]12`, the inhibition result with RAW264.7 [3] is “Active”.
The same measure, in the same setting: in the case of `C[C@]12[C@H](OC(=O)c3ccccc3)[C@@H](c3ccoc3)OC(=O)[C@@H]1CC[C@]1(C)[C@@H]2CC[C@@H](O)[C@]1(C)O` it was “Active”.
`CO[C@@]1(C)[C@H](O)CC[C@@H]2[C@@]3(C)[C@H](OC(=O)c4ccccc4)[C@@H](c4ccoc4)OC(=O)[C@@H]3CC[C@]21C`: the result with RAW264.7 [1] was Active. Besides, the “inhibition (INH)” value with RAW264.7 [2] was >40%. Further, in the test with RAW264.7 [3], the inhibition entry is “Active”. In addition, the Activity in the test with RAW264.7 [4] is recorded as >40%.
As to `C=C1[C@H](O)CC[C@@H]2[C@@](C)(CC(=O)c3ccoc3)[C@H](C)CC[C@@]12C`, the inhibition result in the test with RAW264.7 [3] is “Active”.
Same read-out and setting: in the case of `C[C@@H]1C(=O)CC[C@@H]2[C@@](C)(CCc3ccoc3)[C@H](CO)CC[C@]21C` it was “Active”; in that of `CC(=O)O[C@@H]1[C@@H](c2ccoc2)OC(=O)[C@@H]2CC[C@]3(C)[C@H](CC[C@@H](O)[C@]3(C)O)[C@@]12C`, “Active”.
The same measure, in the same setting: to `C[C@@H]1CC[C@]2(C)[C@H](CCC(=O)[C@H]2C)[C@@]1(C)CC(=O)c1ccoc1` belongs “Active”; to `C[C@]12C[C@@H](c3ccoc3)OC(=O)[C@@H]1CC[C@]1(C)[C@@H]2CC[C@H](Cl)[C@@]1(C)O`, “Active”; to `CC1=CC(=O)O[C@@H]1C[C@@]1(C)[C@H](C)CC[C@@]2(C)C(C)=CCC[C@H]12`, “Active”.
For the molecule `CC1=CCC[C@@H]2[C@@]3(C)C[C@@H](c4ccoc4)OC(=O)[C@@H]3CC[C@@]12C`, the inhibition result in the test on RAW264.7 [3] was “Active”.
The same measure, in the same setting: in the case of `C[C@@H]1CC[C@]2(C)[C@H](CC[C@@H](O)[C@]2(C)O)[C@@]1(C)CC(=O)c1ccoc1` it was “Active”.
The same measure, in the same setting: in the case of `C[C@]12C[C@@H](c3ccoc3)OC(=O)[C@@H]1CC[C@]1(C)[C@@H]2CCC(=O)[C@@]1(C)O` it was “Active”.
On to `C/C(=C\CO)CC[C@@]1(C)[C@H](C)CC[C@@]2(C)C(CO)=CCC[C@H]12`, for which the result in the test on RAW264.7 [1] was Active. Moreover, in the test with RAW264.7 [2], the “inhibition (INH)” value is reported as >40%. In addition, the inhibition result with RAW264.7 [3] is “Active”. Moreover, in the test on RAW264.7 [4], the Activity is recorded as >40%.
With `C[C@]12C[C@@H](c3ccoc3)OC(=O)[C@@H]1CC[C@]1(C)[C@@H]2CCC(=O)[C@]1(C)O`, the inhibition entry with RAW264.7 [3] is “Active”.
For the molecule `COC(=O)[C@@H]1CC[C@]2(C)[C@H](CC[C@@H](O)[C@]2(C)O)[C@@]1(C)CC(=O)c1ccoc1`, in the test with RAW264.7 [1], the outcome was Active. Besides, the inhibition result in the test on RAW264.7 [3] is “Active”.
On to `CC(=O)O[C@@H]1[C@@H](c2ccoc2)OC(=O)[C@@H]2CC[C@@]3(C)C(C)C(=O)CC[C@@H]3[C@@]12C` (stereo partly drawn), for which the inhibition entry in the test on RAW264.7 [3] was “Active”.
On the same count and under the same terms, in the case of `C=C1[C@H](O)CC[C@@H]2[C@@](C)(C[C@H](O)c3ccoc3)[C@H](C)CC[C@@]12C` it was “Active”; in that of `C[C@]12C(=CC[C@]3(C)[C@@H]1CC[C@@H](O)[C@]3(C)O)C(=O)O[C@H](c1ccoc1)[C@H]2OC(=O)c1ccccc1`, “Active”.
Still for that read-out and setting: in the case of `CC1=CC(=O)O[C@H]1C[C@@]1(C)[C@H](C)CC[C@@]2(C)C(C)=CCC[C@H]12` it was “Active”.

Values taken from ChEMBL document CHEMBL5316370, “Laeviganoids A-T, ent-Clerodane-Type Diterpenoids from Croton laevigatus” (2023).
